{
  "source": "patent US20180256509A1",
  "about": "“Nanoparticle Compositions and Methods Thereof to Restore Vascular Integrity” (priority 2014, published 2018)",
  "system": "C57BL mice infused with LPS",
  "assay": "Endotoxemia study: vascular permeability (intravascular-extravascular intensity)",
  "format": "in vivo",
  "settings": "2 hours after LPS infusion; 10 mg/kg; FIG. 10",
  "description": "In this study, the effect of treatment with curcumin-selenium nanoparticles was evaluated in animal models with endotoxemia. In particular, C57BL mice were first infused with 10 mg/kg of LPS (Lipopolysaccharides from E. coli serotype 0128:B12, Sigma Aldrich St. Louis, Mo.). The mice were then separated into 5 treatment groups: 1) no treatment; 2) control NP 10 mg/kg; 3) curcumin 10 mg/kg; 4) curcumin-NP 10 mg/kg (dose calculated based on curcumin concentration); and 5) curcumin-selenium-NP 10 mg/kg (dose calculated based on curcumin concentration). Treatments were administered 30 minutes after LPS infusion. No additional fluid therapies were applied, and food and water was available during observation time points. […] Vascular integrity for all treatment groups was also evaluated at baseline and 2 hours after LPS infusion. Additionally, other end points related to systemic and microvascular function (i.e., heart rate, arteriolar diameter, arteriolar blood flow, and functional capillary density) were evaluated for 4 of the treatment groups (no treatment, control NP 10, curcumin-NP 10 mg/kg, and curcumin-selenium-NP 10 mg/kg treatment groups) at baseline, and 2, 4, 6, 12, and 24 hours after LPS infusion.",
  "data": [
    {"smiles": "COc1cc(/C=C/C(=O)CC(=O)/C=C/c2ccc(O)c(OC)c2)ccc1O", "note": "[curcumin]", "values": [
      {"measurement": "vascular permeability compared with the untreated and control NP treatment groups", "result": "markedly less vascular permeability"}
    ]}
  ]
}
